Series [1] in a line: water solubility of the active ingredient. It counts as physicochemical. On the procedure:
Brivaracetam is a very water soluble active ingredient (ca. 700 mg/ml), and it is not obvious to slow down the release of the drug.

The nature of another series: BCS classification. It counts as physicochemical. On the procedure: Considering Brivaracetam is classified as BCS I, the resulting in vitro dissolution (USP <711> apparatus no 2) in a buffered aqueous media has to show a drug release of no more than 40% after 1 hour of dissolution, of 35%-80% after 4 hours of dissolution and of no less than 80% after 16 hours of dissolution. Preferably, a profile of no more than 35% after 1 hour of dissolution, of 40%-75% after 4 hours of dissolution and of no less than 80% after 16 hours of dissolution. More preferably a profile of no more than 30% after 1 hour of dissolution, of 45%-70% after 4 hours of dissolution and of no less than 80% after 16 hours of dissolution.

In brackets after ≈: the same amount, converted by molar mass.

Usually solubility stands for how much of the substance goes into solution per volume.

Consider `CCC[C@@H]1CC(=O)N([C@@H](CC)C(N)=O)C1` [Brivaracetam, (2S)-2-[(4R)-2-oxo-4-propyl-pyrrolidin-1-yl]butanamide], for which the solubility in series [1] is approximately 700 mg/mL (≈ 3300 mM). Moreover, in “BCS classification”, the BCS class result is “BCS I”.

(Values after patent US8435564B2, “Pharmaceutical compositions comprising brivaracetam” (UCB Pharma, S.A., priority 2008, dated 2013).)
